Tests used:
[1] = system: HIV-1Ada-M; experiment: Antiviral efficacy in primary monocyte-derived macrophages infected with HIV-1Ada-M (p24); type: cell-based
Method: Briefly, cells were infected with different strains of HIV with a multiplicity of infection of 1 (virus/target cell) and were treated with different concentrations of free and liposome-encapsulated drugs. Virus replication were monitored at different time intervals by measuring either the reverse transcriptase activity in cell-free supernatants or the viral p24 protein using an enzymatic test. Virus transcription was also monitored by polymerase chain reaction (PCR) analysis 24 hours after treatment using an HIV primer pair (M661/M667). The PCR evaluation was normalized with respect to the amount of human β-globin gene in cells. Cell viability was assessed using a tetrazolium-based colorimetric (MTT) assay.
Peripheral blood mononuclear cells were suspended in seeding medium in a
48 wellplate at a density of 3 × 10^6 cells/ml. Five days after
initiation of the cultures, nonadherent cells were removed by rinsing the
cultures four times with PBS. Adherent cells were first preincubated in
the presence or absence of drugcontaining medium for 2 hours prior to
inoculation with 10,000 cpm/well of the AdaM monocytotropic strain of
HIV1. Thereafter, medium was changed once every 4 to 5 days and was
replaced with medium supplemented or not with ddI. Virus replication was
monitored by measuring p24 levels using an enzymatic assay.

[2] = system: human premonocytoid U937 cells; experiment: Cellular uptake in U937 cells; conditions: in words, FIGS. 1a, 1b
Method: (§2) We have performed in vitro experiments to evaluate the accumulation of free and liposome-encapsulated anti-HIV agents in murine monocyte-macrophage RAW 264.7 cells and in human premonocytoid U937 cells. In brief, experiments were performed by incubating confluent cells in culture medium in presence of different concentrations of free and liposome-encapsulated anti-HIV agents in which a small proportion of radiolabeled drugs and lipids were added. At different incubation times, the medium was removed and cells were washed and treated with a Triton X-100 solution. Drug and lipid uptake were determined by measuring the radioactivity level with a liquid scintillation counter. The protein concentration for each sample was determined with a Pierce bicinchoninic acid protein assay (Rockford, Ill.) in microtiter plates.

[3] = system: murine monocyte-macrophage RAW 264.7 cells; experiment: Cellular uptake in RAW 264.7 cells; conditions: in words, FIGS. 1a-1d
Method: as §2

[4] = Pharmacokinetics in rats (plasma); type: in vivo, rat (female Sprague-Dawley)
Method: (§1) In brief, free and liposome-encapsulated drugs were injected to female Sprague-Dawley rats as a single intravenous bolus dose via a catheter inserted through the jugular vein of animals. At specific time points, animals were sacrificed and blood was collected in heparinized tubes and separated by centrifugation. At the same time, selected tissues were removed, washed, weighed and homogenized. Tissues and plasma were then treated according to a commercial tissue solubilizer procedure. The determination of drug and lipid levels in all samples were monitored with radioactive tracers.
Parameters were calculated from the plasma concentrationtime curves using
a noncompartmental model.
Values are expressed as means ± SD obtained from 6 animals per group

[5] = system: human CMV (AD169 strain); experiment: Anti-CMV activity: CMV p72 protein expression in MRC-5 cells; type: cell-based; conditions: MRC-5 cell line, 96 hours, in words; FIG. 2g
Method: The anti-CMV activity of free and liposome-encapsulated foscarnet has been also evaluated in embryonic lung fibroblast cells (MRC-5 cell line). […] After a 96 hours incubation, cells were fixed and immunoperoxydase staining was performed using a monoclonal antibody directed against a 72-kDa immediate early CMV protein Labeled plaques were counted and results were expressed as percent of untreated infected control cells versus concentration of foscarnet.

[6] = Tissue distribution in rats; type: in vivo, rat (female Sprague-Dawley); conditions: single i.v. dose 10 mg foscarnet/kg
Method: as §1

[7] = [^3 H]ddI, single i.v. dose 3 mg ddI/kg, rats
[8] = [^14 C]-PFA, single i.v. dose 10 mg/kg, rats, mean ± SD

In the case of O=c1[nH]cnc2c1ncn2[C@H]1CC[C@@H](CO)O1 [Free ddI, 2'-3'-dideoxyinosine], the “p24 (Days post-infection)” value ([1]; 0.1 μM, day 7) is reported as 0 ng/mL, the “p24 (Days post-infection)” value ([1]; 0.1 μM, day 13) is reported as 20 ng/mL and the “p24 (Days post-infection)” value ([1]; 0.1 μM, day 17) is reported as 280 ng/mL. The “p24 (Days post-infection)” value ([1]; 1 μM, day 7) was 0 ng/mL, the “p24 (Days post-infection)” value ([1]; 1 μM, day 13) was 0 ng/mL and the “p24 (Days post-infection)” value ([1]; 1 μM, day 17) was 0 ng/mL. For the same compound, the “p24 (Days post-infection)” value ([1]; 10 μM, day 7) was 0 ng/mL, the “p24 (Days post-infection)” value ([1]; 10 μM, day 13) was 0 ng/mL and the “p24 (Days post-infection)” value ([1]; 10 μM, day 17) was 0 ng/mL. The “drug uptake / accumulation in cells” value [2] was “a higher accumulation”, the “drug uptake / accumulation in cells” value [3] was “a higher accumulation” and the “AUC0-∞, area under the plasma concentration-time curve” value [4, 7] was 5.31 nmol/mL/h. For the same compound, the “Cl, systemic clearance” value [4, 7] was 39.8 mL/min/kg, the “Kel, elimination rate constant” value [4, 7] was 4.97 h⁻¹ and the “MRT, mean residence time” value [4, 7] was 12 min. For the same compound, the “Vdss, steady state volume of distribution” value [4, 7] was 0.48 L/kg and the “t1/2, elimination half-life” value [4, 7] was 8.4 min.

With O=C(O)P(=O)(O)O [Free foscarnet, foscarnet] the “inhibitory activity against CMV p72 protein expression” value [5] was “comparable inhibitory activity”, the “Area under the curve, Brain” value ([6]; brain) was 3.1 nmol foscarnet/g tissue/h and the “Area under the curve, Eyes” value ([6]; eyes) was 22.9 nmol foscarnet/g tissue/h. The “Area under the curve, Liver” value ([6]; liver) was 1.2 nmol foscarnet/g tissue/h, the “Area under the curve, Lungs” value ([6]; lungs) was 1.5 nmol foscarnet/g tissue/h and the “Area under the curve, Lymph nodes” value ([6]; lymph nodes) was 20.3 nmol foscarnet/g tissue/h. For the same compound, the “Area under the curve, Spleen” value ([6]; spleen) was 0.8 nmol foscarnet/g tissue/h, the “AUC0→∞, area under the plasma concentration-time curve” value [4, 8] was 48.0 ± 9.6 nmol/mL/h and the “Cl, systemic clearance” value [4, 8] was 12.8 ± 2.5 mL/min/kg. For the same compound, the “Kel, elimination rate constant” value [4, 8] was 0.96 ± 0.06 h⁻¹, the “MRT, mean residence time” value [4, 8] was 62.4 ± 4.2 min and the “t1/2, elimination half-life” value [4, 8] was 42.6 ± 2.4 min. The “Vdss, steady state volume of distribution” value ([4]; rat, in vivo, iv, 10 mg/kg) was 0.80 ± 0.14 L/kg.
